{"source": "patent US8859503B2", "about": "“Methods and compositions targeting viral and cellular ITAM motifs, and use of same in identifying compounds with therapeutic activity” (priority 2005, dated 2014)", "key": {"[1]": {"tested_on": "Env-expressing NMuMG cells", "assay": "Three-dimensional Matrigel cultures of MMTV Env-expressing NMuMG cells (acinar structure morphology/size)", "assay_type": "cell-based, murine", "protocol": "NMuMG cells (5×10^3 cells per chamber) were cultured on Matrigel® (BD Biosciences) cushions. Assay medium (DMEM/F12 supplemented with 2% donor horse serum, 10 μg/ml insulin, 1 ng/ml cholera toxin, 100 μg/ml hydrocortisone, 50 U/ml penicillin, and 50 μg/ml streptomycin) containing 2% Matrigel was replaced every 4 days. The structures were analyzed, at a magnification of 20, on a Zeiss Axiovert 200M equipped with PCO SensiCam video camera and Slidebook® software (Intelligent Imaging Innovations). Cell staining was performed with rat anti-human Keratin-18 (Lab Vision), rat anti-human E-cadherin and goat anti-rat IgG-FITC conjugated antibodies (Jackson ImmunoResearch Laboratories), or goat anti-rat IgG-Alexa-555 conjugated antibodies (Molecular Probes). Quantification of structure size was performed using a 10×50-μm grid reticule (Fisher Scientific) and 20-100 structures were counted from each chamber. The inhibitors PP2 and Piceatannol (EMD) were added on day 3 of culture, and pictures were taken on day 6. In apoptosis assays, TNF (R&D Systems) or TRAIL (BIOMOL Research Laboratories, Inc) were added on day 5 of culture, and pictures were taken on day 6. TUNEL assay was performed using a kit from Roche Applied Science (Indianapolis, Ind.).\n(§1) NmuMG (wild-type or Env-expressing) or Mm5MT cells (10^4) were incubated on Matrigel (BD Labware) for six days, as described previously. Cells were treated with or without ITAM peptide (10 μM) or the Syk inhibitors piceatannol (1 μg/ml) and SI-31 (100 nM) (EMD). The acinar structures were analyzed and captured, at a magnification of 20×, on a Zeiss Axiovert 200M equipped with PCO SensiCam video camera and Slidebook v4 software (Intelligent Imaging Innovations). Three-dimensional structures >50 μm were considered enlarged. Data shown is based on size of 50 random acini."}, "Mm5MT cells": {"tested_on": "Mm5MT cells", "assay": "Three-dimensional Matrigel cultures of MMTV+ Mm5MT tumor cells", "assay_type": "cell-based", "details": "for reversion to round 3D phenotype: six days", "protocol": "as §1, with “Cells were treated with or without ITAM peptide (10 μM) or the Syk inhibitors piceatannol (1 μg/ml) and SI-31 (100 nM) (EMD).” left out"}, "[2]": {"assay": "Water solubility of the ITAM fragment", "assay_type": "physicochemical"}, "[3]": {"tested_on": "ITAM-based BCR signaling (tyrosine phosphorylation) in splenic B cells", "assay": "Western blotting for tyrosine phosphorylation after anti-BCR stimulation", "assay_type": "cell-based, mouse", "protocol": "Splenic B cells (10^7) were pre-incubated with 0-100 μM ITAM peptide for 3 h at 37° C. and then stimulated with anti-BCR antibodies as above for further 5 min. Lysates (20 μg/lane) were run on SDS-PAGE, blotted and detected with anti-phosphotyrosine antibody (4G10-HRP; Upstate Biotech). Molecular weights shown are based on the molecular weight markers."}, "mouse splenic B cells": {"tested_on": "mouse splenic B cells", "assay": "B lymphocyte stimulation and proliferation ([3H] thymidine incorporation)", "assay_type": "cell-based", "details": "20 μM peptide", "protocol": "Proliferation of mouse splenic B cells: cells (5×10^5) were incubated for 48 h in the presence or absence of 20 μM peptide and stimulated with 10 μg/ml anti-BCR antibodies (Jackson ImmunoResearch Laboratories), LPS (Sigma) or anti-CD40 antibodies (BD Pharmingen). [^3H] Thymidine incorporation (1 μCi/well) was measured in the last 4 h of the experiment."}, "[4]": {"tested_on": "NIH3T3 cells expressing the ITAM-containing MAHB chimera", "assay": "Soft agar colony formation assay of NIH3T3 cells expressing the ITAM-containing MAHB chimera", "assay_type": "cell-based, murine", "protocol": "NIH3T3 cells expressing the ITAM-containing MAHB chimera (1×10^4) were suspended in 0.3% agar in DMEM containing 10% FBS. Cells from each transduction group were plated in 6-well plates pre-coated with 0.6% agar base in DMEM containing 10% FBS. Cells were fed with fresh top agar (0.3% agar in DMEM with 10% FBS, with or without ITAM peptide) every 5 days. Colonies were counted and measured using a graduated reticule under microscope at 10× magnification on day 21."}, "RBL-2H3 cells": {"tested_on": "RBL-2H3 cells", "assay": "FcεR1-mediated degranulation of RBL-2H3 cells (hexosaminidase activity)", "assay_type": "cell-based", "details": "ITAM peptide 25 μM; anti-DNP IgE 1 μg/ml, DNP-HSA 10 ng/ml", "protocol": "The effect of ITAM peptide on mast cell function was evaluated by degranulation induced by FcεR1 cross-linking. RBL-2H3 cells (5×10^4) were incubated overnight with anti-DNP IgE (1 μg/ml). Subsequently, degranulation was induced with DNP-HSA (10 ng/ml, 2 h), in the presence or absence of ITAM peptide (25 μM). Degranulation, as detected by hexosaminidase activity, is depicted as percent of maximal activity obtained from whole cell lysates."}, "Syk": {"molecular_target": "T1, Syk (Mus musculus, UniProt P48025)", "T1 construct": "Whole cell lyastes of Bal-17 B cells (3×10^7) were used; endogenous in cells; host or cells: Bal-17 B cells (whole cell lysate)", "T1 sequence (P48025 whole entry)": "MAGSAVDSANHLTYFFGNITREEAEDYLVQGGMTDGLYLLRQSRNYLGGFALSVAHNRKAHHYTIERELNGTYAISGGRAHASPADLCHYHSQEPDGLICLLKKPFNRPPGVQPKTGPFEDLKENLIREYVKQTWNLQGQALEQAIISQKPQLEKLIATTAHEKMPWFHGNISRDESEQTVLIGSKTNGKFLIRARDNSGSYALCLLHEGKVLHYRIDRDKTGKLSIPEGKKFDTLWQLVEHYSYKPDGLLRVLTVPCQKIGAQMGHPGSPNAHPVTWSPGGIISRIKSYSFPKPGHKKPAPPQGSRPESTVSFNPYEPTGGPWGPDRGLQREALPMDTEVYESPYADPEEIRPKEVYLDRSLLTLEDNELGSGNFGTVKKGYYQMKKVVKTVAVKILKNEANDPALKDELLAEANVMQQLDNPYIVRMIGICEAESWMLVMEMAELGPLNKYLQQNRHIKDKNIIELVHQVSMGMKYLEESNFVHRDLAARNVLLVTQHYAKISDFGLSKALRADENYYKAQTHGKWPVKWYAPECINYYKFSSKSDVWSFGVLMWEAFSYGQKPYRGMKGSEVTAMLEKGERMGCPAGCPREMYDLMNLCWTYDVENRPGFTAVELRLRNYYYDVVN", "assay": "Peptide:Syk binding assay (biotin-peptide pull-down from Bal-17 B cell lysates)", "details": "peptide 50 μM; Bal-17 whole cell lysates; n=3", "protocol": "Whole cell lyastes of Bal-17 B cells (3×10^7) were used for quantification of ITAM peptide interactions. Equivalent cell lysates were mixed with either biotin-KRPPAVLL (control peptide; SEQ ID No 46) or biotin-KRPPYVLL (ITAM peptide; SEQ ID No 47) in concentration between 10-50 μM. Pull-downs were performed with Immobilized Neutravidin Protein (Pierce), as previously described. The resulting lysate pull-downs were run on SDS-PAGE were detected by Western blotting with rabbit anti-Syk antibody (N-19, Santa Cruz). Donkey anti-rabbit IgG-alkaline phosphatase conjugated antibody was used as a secondary antibody (Jackson ImmunoResearch Laboratories). For development and quantification, an ECF substrate was used followed by a scan using Storm 860 and analysis by ImageQuant 5.2 (all obtained from Amersham Biosciences)."}, "Syk-GFP": {"molecular_target": "T2, Syk-GFP (Mus musculus, UniProt P48025)", "T2 construct": "host or cells: Human 293T cells, transient transfection", "T2 sequence (P48025 whole entry)": "as above", "assay": "Co-localization of dsRed peptide chimeras with Syk-GFP in 293T cells by confocal microscopy", "assay_type": "cell-based", "details": "transiently transfected human 293T cells", "text": "Peptide conjugates were produced by QuikChange XL® kit from Stratagene. The dsRed2-C1 construct (BD Clontech) was modified using the following primers: dsRed.YVLL: 5′-[…]-3′ (SEQ ID No 42); and 5′-[…]-3 (SEQ ID No 43).\ndsRed.KRPPYVLL: 5′-[…]-3′ (SEQ ID No 44); and 5′-[…]-3′ (SEQ ID No 45). The Syk-eGFP construct was a provided by Dr. Robert Geahlen (Purdue University).\nFor laser scanning microscopy a Zeiss LSM510 META laser scanning confocal module on a Zeiss Axiovert 200M inverted microscope was used. Objective used: C-APO 40×/1.2 water DIC. Lasers: 488 nm laser line from Argon laser (30 mW) for eGFP excitation; 543 nm laser line from HeNe laser (1 mW) for dsRed excitation. Analysis was performed on Zeiss LSM510 META v3.2 software."}}, "note": "“Also recorded” adds a separate entry of the source. Ends that are not written are not given here. * marks the point of attachment. Biotin = O=C1N[C@H]2[C@H](CS[C@H]2CCCCC(=O)*)N1", "data": [{"compound": "CC(C)(C)n1nc(-c2ccc(Cl)cc2)c2c(N)ncnc21", "note": "[PP2]", "values": [{"measurement": "morphological changes associated with Env transformation", "setting": "[1]; Env+ NMuMG 3D cultures, inhibitor 500 ng/ml added on day 3, imaged on day 6", "value": "sufficient to block morphological changes associated with Env transformation"}, {"measurement": "phenotypic reversal of transformed phenotype to normal round acini", "setting": "[1]; Src inhibitor PP2, concentration not printed for this experiment", "value": "effective in phenotypic reversal"}]}, {"compound": "Cn1cc(C=C2C(=O)Nc3ccc(S(N)(=O)=O)cc32)c2ccccc21", "note": "[SI-31, reference compound]", "values": [{"measurement": "phenotypic reversal of transformed phenotype to normal round acini", "setting": "[1]; SI-31 100 nM, six days", "value": "effective in phenotypic reversal"}, {"measurement": "reversion to round 3D phenotype", "setting": "Mm5MT cells; SI-31 100 nM", "value": "readily apparent"}]}, {"compound": "Ac-KRPPYVLL [KRPPYVLL]", "values": [{"measurement": "water solubility", "setting": "[2]", "value": "water-soluble"}]}, {"compound": "Ac-KRPPYVLL-OH [ITAM peptide]", "values": [{"measurement": "phenotypic reversal of transformed phenotype to normal round acini", "setting": "[1]; ITAM peptide 10 μM, Env-expressing NMuMG on Matrigel six days", "value": "as effective in phenotypic reversal as the Src inhibitor PP2 and Syk inhibitors Piceatannol and SI-31"}, {"measurement": "Mm5MT acini phenotype", "setting": "Mm5MT cells; 3D cultures on Matrigel six days, treated with ITAM peptide, Src or Syk inhibitors", "value": "exhibited a more round phenotype"}, {"measurement": "reversion to round 3D phenotype", "setting": "Mm5MT cells; ITAM peptide 20 μM (5-20 μM tested)", "value": "readily apparent"}, {"measurement": "tyrosine phosphorylation associated with ITAM-based BCR signaling", "setting": "[3]; higher concentrations of the peptide", "value": "neither stimulatory nor inhibitory"}, {"measurement": "tyrosine phosphorylation associated with ITAM-based BCR signaling", "setting": "[3]; relevant peptide concentrations (0-100 μM tested), 3 h pre-incubation, anti-BCR 5 min, data not shown", "value": "visibly reduced; also recorded: Inhibition of tyrosine phosphorylation was confirmed"}, {"measurement": "BCR-induced proliferation ([3H] thymidine incorporation)", "setting": "mouse splenic B cells; 48 h, 10 μg/ml anti-BCR antibodies", "value": "inhibition of BCR-induced proliferation; also recorded: highly significant (p=0.0017)"}, {"measurement": "stimulation of B lymphocytes by LPS (non-ITAM)", "setting": "mouse splenic B cells; LPS 20 μg/ml, data not shown", "value": "no significant effect"}, {"measurement": "stimulation of B lymphocytes through CD40 (non-ITAM)", "setting": "mouse splenic B cells; anti-CD40 5 μg/ml, data not shown", "value": "no significant effect"}, {"measurement": "size and number of colonies formed", "setting": "[4]; ITAM peptide 0-20 μM added with feeding media, colonies >75 μm scored on day 21", "value": "reduction in both size and number of colonies formed"}, {"measurement": "colony formation of ITAM+ fibroblasts", "setting": "[4]; chronic treatment with ITAM peptide in feeding media", "value": "sufficient to reduce colony formation"}, {"measurement": "FcεRI-induced degranulation (hexosaminidase activity)", "setting": "RBL-2H3 cells", "value": "significantly inhibited; also recorded: significant reduction (p=0.093)"}]}, {"compound": "Biotin-KRPPYVLL", "values": [{"measurement": "Syk detected in pull-down, over control peptide biotin-KRPPAVLL", "setting": "Syk", "value": "1.5- to 2 fold"}]}, {"compound": "dsRed.KRPPYVLL: dsRed chimera protein with the entire 8 amino acid ITAM fragment (dsRed-KRPPYVLL)", "values": [{"measurement": "co-localization with Syk-GFP", "setting": "Syk-GFP", "value": "co-localization was still detected"}]}, {"compound": "dsRed.YVLL: dsRed chimera protein with 4 amino acids (YVLL) of the ITAM fragment (dsRed-YVLL)", "values": [{"measurement": "co-localization with Syk-GFP", "setting": "Syk-GFP", "value": "co-localization was readily observed"}]}]}
